The source of these data is US8614333B2, “Acenaphtho heterocyclic compound and application thereof” (Dalian University of Technology, priority 2010, dated 2013).

The subject of data set [1] is BAX shift towards the chondriosome. As to the kind of experiment: Co-localization between Bax protein and chondriosome, Bax-YFP in MCF-7 cells. The conditions noted are these: for Doses (concentration at which the compound drove the BAX to shift towards the chondriosome): Bax-YFP/Mito Tracker Red; for Time (time period after which BAX shifted towards the chondriosome): at the concentration given. Format: cell-based. In outline: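 MCF-7 cells transfected with Bax-YFP plasmid; 24 h later treated with 10 μM compound for 6 h, then stained 10 min with 50 nM MitoTracker Red CMXRos. Dual-channel laser confocal imaging; Bax mitochondrial localization read as green/red overlap (orange).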

Data set [2] has as its system MCF-7 cells transfected with BAX/BAK interfering plasmid. As to the kind of experiment: Cytotoxicity by MTT, cells transfected with BAX/BAK interfering plasmid. Type of data set: cell-based. The conditions noted are these: Homo sapiens, MCF7; MCF-7 with BAX/BAK interfering plasmid, MTT, 48 hours. In outline: (§1)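 MCF-7 cells transfected with 3 μg BAX/BAK interfering plasmid by calcium phosphate, knockdown checked by Western; untransfected cells run in parallel. Cells treated with a compound concentration gradient for 48 hours; viability by MTT, IC50 derived.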

In the next data set the test system is Bcl-2. As to the kind of experiment: Western blotting, semiquantitative analysis of Bcl-2 protein bands. Format: cell-based. Conditions: control = 1, tumor cells. The protocol:
(§2) The interest protein was detected by the corresponding antibody. The expression of the interest protein in the cells was detected by horseradish peroxidase-labeled secondary antibodies in combination with ECL coloration method. […] The concentration of the protein bands in the Western images were carried out semiquantitative analysis and normalization treatment with KODAK Gel Logic 1500 imaging system software.

Data set [3] addresses T1, interaction between Bcl-2 and Bax (Homo sapiens, UniProt P10415).
T1 construct: expressed in transfected cells; host or cells: Hela cells
As to the kind of experiment: Intracellular FRET, Bcl-2-CFP/Bax-YFP in Hela cells. Format: cell-based. The conditions noted are these: for Time (time period after which the interaction between Bcl-2 and Bax was interfered): at the concentration given. The procedure, abridged:
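Hela cells transfected with Bcl-2-CFP and/or Bax-YFP plasmids, then treated with compound in DMSO at 2, 5, 10 and 15 μM for 24 h, or at 40 μM for 3, 6 and 24 h. FRET taken as the 527/475 nm emission ratio at 433 nm excitation, with singly transfected controls set to 1.0. Viability checked by MTT.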

The next data set relates to Mcl-1. The data set can be described thus: Western blotting, semiquantitative analysis of Mcl-1 protein bands. Format: cell-based. The conditions noted are these: control = 1, tumor cells. The protocol: as §2
A general note: In western blotting, separated proteins are transferred to a membrane and probed.

Another data set addresses GST-Bcl-2 protein (Homo sapiens, UniProt P10415). As to the kind of experiment: Fluorescence polarization assay, competition with FAM-Bid peptide for Bcl-2. Conditions: GST-Bcl-2 40 nM, FAM-Bid 5 nM, 4 hours of incubation, read-out: Bcl-2 binding constants. The protocol:
(§3) A Bid BH3 peptide (amino acids: 79-99: […]) having 21 amino acids was synthesized and marked with 6-carboxyfluorescein N-succinimidyl ester (FAM) as fluorescent tag (FAM-Bid) at the N-terminal. The reaction system used in the competitive binding experiment was GST-Bcl-2 protein (40 nM) or Mcl-1 protein, which was dissolved in the reaction buffer (100 mM K3PO4, pH 7.5; 100 μg/ml bovine γ albumin; 0.02% sodium azide) together with FAM-Bid polypeptide (5 nM). In a 96-well plate, 100 µL of the reaction system was added into each well. Then 1 μL different concentration of compound 13 mother solution to be detected dissolved in DMSO was added there into until the final concentration met the experimental design requirements. Meanwhile, two control groups were established, one with the reaction system only containing Bcl-2 or Mcl-1 and FAM-Bid (equivalent to 0% inhibition rate), the other with the reaction system only containing FAM-Bid peptide. After 4 hours of incubation, the 96-well plate was detected by enzyme-labelled meter. The fluorescent polarization value (mP) was tested at […]. Ki value was deduced according to calculation formula.
(§4) The BH3 analogous degrees of other 12 compounds were detected by using the experimental method as described above.
Background: Fluorescence polarisation rises when a labelled molecule tumbles more slowly, as on binding a larger partner.

In the next data set the target is Mcl-1 protein (Homo sapiens, UniProt Q07820). The data set can be described thus: Fluorescence polarization assay, competition with FAM-Bid peptide for Mcl-1. The conditions noted are these: FAM-Bid 5 nM, 4 hours of incubation, read-out: Mcl-1 binding constants. The protocol: as §3, §4
Mcl-1 protein, sequence (Q07820 whole entry, species assumed): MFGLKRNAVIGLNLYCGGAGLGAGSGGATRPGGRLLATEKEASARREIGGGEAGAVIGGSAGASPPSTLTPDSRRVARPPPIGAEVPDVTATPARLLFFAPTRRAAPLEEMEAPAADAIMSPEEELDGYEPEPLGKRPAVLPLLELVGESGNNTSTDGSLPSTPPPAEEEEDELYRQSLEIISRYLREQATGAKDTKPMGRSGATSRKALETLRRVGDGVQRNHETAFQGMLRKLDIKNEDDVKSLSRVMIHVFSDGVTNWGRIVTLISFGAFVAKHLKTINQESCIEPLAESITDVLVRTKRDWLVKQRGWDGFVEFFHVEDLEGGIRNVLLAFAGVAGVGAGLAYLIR
The next data set has as its system MCF-7 cells. As to the kind of experiment: Cytotoxicity by MTT, cells without plasmid transfection. Format: cell-based. The conditions noted are these: Homo sapiens, MCF7; MCF-7, MTT, 48 hours; read-out: IC50 value in untransfected cells. The procedure, abridged: as §1

T1 sequence (P10415 whole entry): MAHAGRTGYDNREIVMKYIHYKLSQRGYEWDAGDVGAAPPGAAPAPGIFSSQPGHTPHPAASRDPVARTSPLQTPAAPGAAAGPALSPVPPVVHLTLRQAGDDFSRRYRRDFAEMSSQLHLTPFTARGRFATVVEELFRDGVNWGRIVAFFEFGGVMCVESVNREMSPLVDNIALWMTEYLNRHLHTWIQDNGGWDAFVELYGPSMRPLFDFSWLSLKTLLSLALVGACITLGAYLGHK
GST-Bcl-2 protein, sequence (P10415 whole entry): as above

As a reminder, the melting point is the temperature of the solid-liquid transition. What is called IC50 is the midpoint of a concentration-inhibition curve. `CCC(C)c1ccc(Oc2ccc3c4c(cccc24)C2=NC(=O)C(C#N)=C23)cc1` (centres unmarked) [Compound 13, 3-(4-sec-Butyl-phenoxy)-8-oxo-8H-acenaphtho[1,2-b]pyrrole-9-carbonitrile] displayed a melting point of 278 to 279 °C. In [1], the “Doses (concentration at which the compound drove the BAX to shift towards the chondriosome)” value was 5.0 µM and the “Time (time period after which BAX shifted towards the chondriosome)” value was 4 h. Also, the IC50 in [2] is above 50000 nM. Besides, the “concentration of the protein bands (semiquantitative, normalized), Bcl-2” value with Bcl-2 (6 h) amounted to 0.99. Besides, in the data set with Bcl-2 (12 h), the “concentration of the protein bands (semiquantitative, normalized), Bcl-2” value is on record as 0.99. The “concentration of the protein bands (semiquantitative, normalized), Bcl-2” value in the data set on Bcl-2 (18 h) turned out to be 0.42. In the data set with Bcl-2 (24 h), the “concentration of the protein bands (semiquantitative, normalized), Bcl-2” value stood at 0.14. In data set [3], the “Doses (concentration at which the compound interfered with the interaction between Bcl-2 and Bax)” value stood at 0.5 µM; the “Time (time period after which the interaction between Bcl-2 and Bax was interfered)” value came to 4 h. Moreover, the “concentration of the protein bands (semiquantitative, normalized), Mcl-1” value in the data set with Mcl-1 (2 h) is reported as 0.79. Also, the “concentration of the protein bands (semiquantitative, normalized), Mcl-1” value with Mcl-1 (6 h) is recorded as 0.29. Besides, the Ki on GST-Bcl-2 protein stood at 158 nM. Further, the Ki at Mcl-1 protein was determined as 24 nM. The IC50 with MCF-7 cells was 7500 nM.
As to `CC(C)c1ccc(Sc2ccc3cccc4c3c2C2=NC(=O)C(C#N)=C24)cc1` [Compound 22, 6-(4-Isopropyl-phenylsulfanyl)-8-oxo-8H-acenaphtho[1,2-b]pyrrole-9-carbonitrile], the “Doses (concentration at which the compound drove the BAX to shift towards the chondriosome)” value in data set [1] is 5.0 µM. Besides, in data set [1], the “Time (time period after which BAX shifted towards the chondriosome)” value turned out to be 3 h. In addition, the IC50 in [2] was above 50000 nM; with MCF-7 cells, 1200 nM. Also, the “concentration of the protein bands (semiquantitative, normalized), Bcl-2” value with Bcl-2 (6 h) is recorded as 0.99; in the data set with Bcl-2 (12 h), 0.99; in the data set with Bcl-2 (18 h), 0.60; in the data set with Bcl-2 (24 h), 0.37. Besides, the “Doses (concentration at which the compound interfered with the interaction between Bcl-2 and Bax)” value in data set [3] was found to be 0.5 µM. Besides, the “Time (time period after which the interaction between Bcl-2 and Bax was interfered)” value in [3] is given as 2 h. Further, the results for the “concentration of the protein bands (semiquantitative, normalized), Mcl-1” value with Mcl-1 (2 h) and with Mcl-1 (6 h) were 0.68 and 0.49, respectively. Further, the Ki came to 9 nM at GST-Bcl-2 protein and 85 nM at Mcl-1 protein.
